From paper PMC12486301 (The Journal of pharmacology and experimental therapeutics, 2025)
Counter-ions that a name gives are not always drawn. Like-named read-outs stand apart in the source and are kept apart here.

Biological target: T1, ENT1 (Homo sapiens, UniProt Q99808)
T1 sequence (Q99808 1-456): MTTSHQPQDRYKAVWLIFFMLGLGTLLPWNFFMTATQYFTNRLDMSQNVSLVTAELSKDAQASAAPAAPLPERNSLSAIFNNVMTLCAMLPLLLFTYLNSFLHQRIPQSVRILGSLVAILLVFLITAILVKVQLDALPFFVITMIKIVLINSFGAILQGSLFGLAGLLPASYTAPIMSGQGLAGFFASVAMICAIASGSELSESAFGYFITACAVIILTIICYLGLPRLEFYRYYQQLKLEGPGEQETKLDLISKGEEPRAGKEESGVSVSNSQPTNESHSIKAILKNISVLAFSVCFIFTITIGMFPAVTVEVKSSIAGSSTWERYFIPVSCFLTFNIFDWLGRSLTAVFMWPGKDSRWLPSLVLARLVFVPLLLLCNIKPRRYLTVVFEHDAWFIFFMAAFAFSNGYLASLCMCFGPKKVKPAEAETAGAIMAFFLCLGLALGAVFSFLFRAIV
Assay: Inhibition of [3H]uridine uptake into WT HeLa
Assay type: cell-based
Conditions: for inhibition at 20 µM: HeLa; for ENT1 % Inhibition (±SD): 20 μM, model-predicted compounds from MedChem Express Drug Repurposing Library

[1] = read-out: ENT1 % Inhibition (±SD)

Row | Structure (SMILES) | inhibition at 20 µM [1] [%] | further results
1 | C[C@]12CC[C@@H]3c4ccc(O)cc4CC[C@H]3[C@@H]1CC[C@H]2O [Alpha-Estradiol] | 77.2 | 
2 | CC[C@@H](C(=O)Nc1ccc(C(N)=O)c(F)c1)n1cc(OC)c(-c2cc(Cl)ccc2-n2cc(C(F)(F)F)nn2)cc1=O [Asundexian] |  | ENT1 % Inhibition (±SD): 95.39 (0.23) %
3 | COc1cccc(C(=O)COc2ccc(CC3SC(=O)NC3=O)cc2)c1 (stereo not shown) [Azemiglitazone] |  | ENT1 % Inhibition (±SD): 74.95 (4.00) %
4 | COc1cc(C(=O)c2c(C)oc3c(O)c(OC)ccc23)cc(OC)c1OC [BNC105] |  | ENT1 % Inhibition (±SD): 97.87 (1.06) %
5 | COC(=O)c1cc(OC)c2c(c1-c1c(CO)cc(OC)c3c1OCO3)OCO2 [Bicyclol] | 72.3 | 
6 | COc1ccc(S(=O)(=O)Nc2cc(-c3c(O)ccc4ccccc34)c(O)c3ccccc23)cc1 [C188-9] |  | ENT1 % Inhibition (±SD): 72.99 (5.06) %
7 | COc1cc2c(cc1OC)-c1c/c(=N\c3c(C)cc(C)cc3C)n(CCNC(N)=O)c(=O)n1CC2 [Ensifentrine] | 98.2 | 
8 | O=C(O[C@@H]1Cc2c(O)cc(O)cc2O[C@@H]1c1ccc(O)c(O)c1)c1cc(O)c(O)c(O)c1 [Epicatechin gallate] |  | IC50: 4 µM; inhibition at 20 µM (read-out: ENT1 inhibition of uridine uptake (Spectrum screen, text)): ~85%
9 | CO[C@H]1C[C@@H]2CC[C@@H](C)[C@@](O)(O2)C(=O)C(=O)N2CCCC[C@H]2C(=O)O[C@H]([C@H](C)C[C@@H]2CC[C@@H](OCCO)[C@H](OC)C2)CC(=O)[C@H](C)/C=C(\C)[C@@H](O)[C@@H](OC)C(=O)[C@H](C)C[C@H](C)/C=C/C=C/C=C/1C [Everolimus] | 92 | 
10 | C#CCOc1ccc(/C=C/C(=O)Nc2ccccc2C(=O)O)cc1OC [FT011] |  | ENT1 % Inhibition (±SD): 54.94 (2.47) %
11 | COc1cc(-c2cnc3cc(OCCN4CCOCC4)ccn23)cc2c1C(=O)N(CC(F)(F)F)CC2 [GLPG3970] | 68.1 | 
12 | CO[C@H]1CC[C@H](n2c([C@@H]3CCCC(=O)N3c3ccc(F)c(F)c3)nc3cc(-c4c(C)noc4C)ccc32)CC1 [Inobrodib] | 91.4 | 
13 | CCn1c(=O)c2c(nc(/C=C/c3ccc(OC)c(OC)c3)n2C)n(CC)c1=O [Istradefylline] | 96.1 | 
14 | Cc1ccc(C(=O)Nc2ccc(Oc3cc4cnn(C)c4cc3-c3cn[nH]c3)c(F)c2)c(=O)n1-c1ccc(F)cc1.Cl.Cl [Merestinib dihydrochloride] |  | ENT1 % Inhibition (±SD): 58.49 (4.13) %
15 | CCCOc1ccc(S(=O)(=O)N2CCN(CCO)CC2)cc1-c1nc2c(CCC)cn(CC)c2c(=O)[nH]1 [Mirodenafil (dihydrochloride), Mirodenafil] | 79.3 | 
16 | C#Cc1cccc(Nc2ncnc3cc(OC)c(OCCCN4CCOCC4)cc23)c1 [NRC-2694] |  | ENT1 % Inhibition (±SD): 67.27 (11.1) %

Second part, led by results:

Row | inhibition at 20 µM [1] [%] | Structure (SMILES) | further results
17 | 73.6 | Cc1c(OCC(F)(F)F)ccnc1C[S@@+]([O-])c1nc2ccccc2[nH]1 [(R)-Lansoprazole] | 
18 | 88.1 | COc1cc(OC)c2c(=O)[nH]c(-c3cc(C)c(OCCO)c(C)c3)nc2c1 [Apabetalone] | 
19 | 67.5 | COc1cc(C[C@H]2C(=O)OC[C@@H]2Cc2ccc(OC)c(OC)c2)ccc1O [Arctigenin] | 
20 | 100 | COc1ccc(CN=c2[nH]c(N3CCC[C@H]3CO)ncc2C(=O)NCc2ncccn2)cc1Cl [Avanafil] | 
21 | 98 | CCOc1ccc2c(-c3cccc(F)c3)nn(CC(=O)N(C)c3ccc4nc(C)oc4c3)c(=O)c2c1 [CFTR corrector 2] | 
22 | 57.3 | COc1ccc(-c2c(Cl)ncn2-c2ccc(S(N)(=O)=O)cc2)cc1F [Cimicoxib] | 
23 | 86.8 | COc1cccc(-c2cc(F)c(Nc3ncccc3C(=O)O)c(F)c2)c1 [Farudodstat] | 
24 | 56.2 | Cc1cccc(-c2nn3c(c2-c2ccnc4ccc(C(N)=O)cc24)CCC3)n1 [Galunisertib] | 
25 | 92.7 | COC(=O)C1=C(C)NC(C)=C(C(=O)OC(C)C)C1c1cccc2nonc12 (stereo not shown) [Isradipine] | 
26 | 81.3 | CNc1nc(-c2cccc(NC(=O)c3ccc(C(=O)OC)cc3)c2)c2cc(OC)c(OC)cc2n1 [Lotamilast] | 
27 | 76.8 | COC(=O)C1=C(C)NC(C)=C(C(=O)OCCN(C)Cc2ccccc2)C1c1cccc([N+](=O)[O-])c1 (stereo not shown) [Nicardipine (hydrochloride), Nicardipine] | 
